In the assay the target is T1, JNK3 (Homo sapiens, UniProt P53779).
T1 construct: One such construct encodes amino acid residues Ser40-Glu402 of JNK3α1 and is preceded by Met and Gly residues; Met-Gly (initiation methionine plus glycine added for the NcoI site); made in house; host or cells: E. coli BL21 (DE3)
In words: JNK inhibition assay: spectrophotometric coupled-enzyme assay with activated JNK3. The assay is classed as biochemical. Conditions: activated JNK3 10 nM, 10 μM ATP, 200 μM EGF receptor peptide, 30° C., competitive inhibition model. The text has this: A BLAST search of the EST database using the published JNK3α1 cDNA as a query identified an EST clone (#632588) that contained the entire coding sequence for human JNK3α1. Polymerase chain reactions (PCR) using pfu polymerase (Strategene) were used to introduce restriction sites into the cDNA for cloning into the pET-15B expression vector at the NcoI and BamHI sites. The protein was expressed in E. coli. […] This truncation corresponds to Ser 2 of JNK1 and JNK2 proteins, and is preceded by a methionine (initiation) and a glycine residue. The glycine residue was added in order to introduce an NcoI site for cloning into the expression vector. In addition, systematic C-terminal truncations were performed by PCR to identify a construct that give rise to diffraction-quality crystals.
5 mg of JNK3 was diluted to 0.5 mg/ml in 50 mM HEPES buffer, pH 7.5, containing 100 mM NaCl, 5 mM DTT, 20 mM MgCl2 and 1 mM ATP. GST-MKK7(DD) was added at a molar ratio of 1:2.5 GST-MKK7:JNK3. After incubation for 30 minutes at 25° C., the reaction mixture was concentrated 5-fold by ultrafiltration in a Centriprep-30 (Amicon, Beverly, Mass.), diluted to 10 ml and an additional 1 mM ATP added. This procedure was repeated three times to remove ADP and replenish ATP. The final addition of ATP was 5 mM and the mixture incubated overnight at 4° C.
The activated JNK3/GST-MKK7(DD) reaction mixture was exchanged into 50 mM HEPES buffer, pH 7.5, containing 5 mM DTT and 5% glycerol (w/v) by dialysis or ultrafiltration. The reaction mixture was adjusted to 1.1 M potassium phosphate, pH 7.5, and purified by hydrophobic interaction chromatography (at 25° C.) using a Rainin Hydropore column. […] Activated JNK3 (i.e. doubly phosphorylated JNK3) was stored at −70° C. at 0.25-1 mg/ml.
Compounds were assayed for the inhibition of JNK3 by a spectrophotometric coupled-enzyme assay. In this assay, a fixed concentration of activated JNK3 (10 nM) was incubated with various concentrations of a potential inhibitor dissolved in DMSO for 10 minutes at 30° C. in a buffer containing 0.1 M HEPES buffer, pH 7.5, containing 10 mM MgCl2, 2.5 mM phosphoenolpyruvate, 200 μM NADH, 150 μg/mL pyruvate kinase, 50 μg/mL lactate dehydrogenase, and 200 μM EGF receptor peptide. […] The reaction was initiated by the addition of 10 μM ATP and the assay plate is inserted into the spectrophotometer's assay plate compartment that was maintained at 30° C. The decrease of absorbance at 340 nm was monitored as a function of time. The rate data as a function of inhibitor concentration was fitted to competitive inhibition kinetic model to determine the Ki.

Each structure is given as a SMILES string.

T1 sequence (P53779 40-402): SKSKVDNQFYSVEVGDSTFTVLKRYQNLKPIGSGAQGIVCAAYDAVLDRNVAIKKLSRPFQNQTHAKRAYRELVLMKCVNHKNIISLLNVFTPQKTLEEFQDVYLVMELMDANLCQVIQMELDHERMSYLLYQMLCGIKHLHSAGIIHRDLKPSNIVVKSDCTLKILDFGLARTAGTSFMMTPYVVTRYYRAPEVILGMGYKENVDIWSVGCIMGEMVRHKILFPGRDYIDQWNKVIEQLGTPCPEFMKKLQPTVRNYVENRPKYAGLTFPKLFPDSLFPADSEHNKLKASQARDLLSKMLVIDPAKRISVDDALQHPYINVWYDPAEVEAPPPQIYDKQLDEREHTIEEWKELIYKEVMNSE

Broadly, the Ki is the equilibrium dissociation constant of an inhibitor or competing ligand from its target. For the molecule `Cc1cccc(CN2C(=O)/C(=N\O)c3cc(Br)ccc32)c1` [Compound 27], the Ki is at least 1000 nM.

`Cc1cc(Cl)cc2c1N(Cc1cccc([N+](=O)[O-])c1)C(=O)/C2=N\O` [Compound 98]: the Ki was below 1000 nM.

As to `CC(C)(C)NC(=O)c1ccc2c(c1)N(Cc1cc(F)cc3c1OCOC3)C(=O)/C2=N\O` [Compound 241], the Ki was at least 1000 nM.

As to `COC(=O)CNC(=O)c1ccc2c(c1)N(Cc1cc(F)cc3c1OCOC3)C(=O)/C2=N\O` [Compound 288], the inhibition constant (Ki) was at least 1000 nM.

For `O=C1/C(=N\O)c2cc(Br)ccc2N1Cc1cccc(F)c1` [Compound 28], the Ki was at least 1000 nM.

Take `O=C1/C(=N\O)c2cc(F)ccc2N1Cc1cccc(F)c1` [Compound 58]: the Ki was at least 1000 nM.

Take `O=C1/C(=N\O)c2c(-c3cc4ccccc4o3)cccc2N1Cc1cc(F)cc2c1OCOC2` [Compound 206]: the Ki was at least 1000 nM.

On to `O=C1/C(=N\O)c2ccccc2N1Cc1ccc([N+](=O)[O-])cc1` [Compound 18], for which the Ki is at least 1000 nM.

Consider `O=C1/C(=N\O)c2cc(Cl)ccc2N1Cc1c(Cl)cccc1Cl` [Compound 4], for which the Ki is below 1000 nM.

In the case of `O=C1/C(=N\O)c2cc(Cl)ccc2N1Cc1ccc(F)cc1` [Compound 46], the Ki was at least 1000 nM.

As for `COc1ccc(CN2C(=O)/C(=N\O)c3cc(Cl)ccc32)cc1` [Compound 72], the Ki was at least 1000 nM.

For `O=C1/C(=N\O)c2ccccc2N1Cc1csc(-c2ccc(Cl)cc2)n1` [Compound 71], the Ki was at least 1000 nM.

On to `O=C1/C(=N\O)c2ccc([N+](=O)[O-])cc2N1Cc1cc(F)cc2c1OCOC2` [Compound 207], for which the Ki was below 1000 nM.

Take `Cc1ccc(-c2ccc3c(c2)N(Cc2cc(F)cc4c2OCOC4)C(=O)/C3=N\O)cc1` [Compound 333]: the Ki was at least 1000 nM.

Regarding `Cc1cc(Cl)cc2c1N(Cc1nc3ccccc3[nH]1)C(=O)/C2=N\O` [Compound 111], the Ki was at least 1000 nM.

As for `O=C(c1ccc(F)cc1)c1ccc2c(c1)/C(=N/O)C(=O)N2Cc1cc(F)cc2c1OCOC2` [Compound 328], the Ki is at least 1000 nM.

For the molecule `O=C1/C(=N\O)c2ccc(-c3ccccc3)cc2N1Cc1ccccc1-c1ccccc1` [Compound 162], the Ki was at least 1000 nM.

`O=C(NCc1cc(Cl)ccc1Cl)c1ccc2c(c1)N(Cc1cc(F)cc3c1OCOC3)C(=O)/C2=N\O` [Compound 236]: the Ki is at least 1000 nM.

Take `O=C(Cc1ccccc1F)Nc1ccc2c(c1)N(Cc1cc(F)cc3c1OCOC3)C(=O)/C2=N\O` [Compound 220]: the Ki was below 1000 nM.

For `O=C(Nc1ccc2c(c1)N(Cc1cc(F)cc3c1OCOC3)C(=O)/C2=N\O)c1ccc(Cl)cc1Cl` [Compound 252], the Ki was at least 1000 nM.

With `O=C1/C(=N\O)c2ccc(NS(=O)(=O)c3ccc(Cl)cc3)cc2N1Cc1cc(F)cc2c1OCOC2` [Compound 213], the Ki was at least 1000 nM.

Turning to `COc1ccc(CN2C(=O)/C(=N\O)c3ccccc32)cc1` [Compound 61], the Ki was at least 1000 nM.

In the case of `COc1ccc(CCNC(=O)c2ccc3c(c2)N(Cc2cc(F)cc4c2OCOC4)C(=O)/C3=N\O)cc1OC` [Compound 232], the Ki is at least 1000 nM.

For `Cc1ccc(C(=O)c2ccc3c(c2)/C(=N/O)C(=O)N3Cc2cc(F)cc3c2OCOC3)cc1` [Compound 349], the Ki is at least 1000 nM.

For the molecule `Cc1cc(C)c2c(c1)/C(=N/O)C(=O)N2Cc1ccc(S(C)(=O)=O)cc1` [Compound 93], the Ki was at least 1000 nM.

In the case of `O=C1/C(=N\O)c2cc(Cl)ccc2N1Cc1ccc(Cl)cc1` [Compound 3], the Ki was at least 1000 nM.

On to `Cc1ccc2c(c1)/C(=N/O)C(=O)N2Cc1ccc(Cl)cc1` [Compound 14], for which the Ki is at least 1000 nM.

With `Nc1cccc(-c2ccc3c(c2)N(Cc2cc(F)cc4c2OCOC4)C(=O)/C3=N\O)c1` [Compound 327], the Ki is below 1000 nM.

Regarding `O=C(CN1C(=O)/C(=N\O)c2cc(Br)ccc21)OCc1ccccc1` [Compound 158], the Ki was at least 1000 nM.

On to `Cc1ccc2c(c1)/C(=N/O)C(=O)N2Cc1ccc([N+](=O)[O-])cc1` [Compound 39], for which the Ki is at least 1000 nM.

Take `COc1cc(CN2C(=O)/C(=N\O)c3ccccc32)cc(OC)c1` [Compound 68]: the Ki is below 1000 nM.

In the case of `COc1cccc(C(=O)Nc2ccc3c(c2)/C(=N/O)C(=O)N3Cc2cc(F)cc3c2OCOC3)c1` [Compound 122], the Ki was at least 1000 nM.

Turning to `O=C(NCc1ccncc1)c1ccc2c(c1)N(Cc1cc(F)cc3c1OCOC3)C(=O)/C2=N\O` [Compound 238], the Ki was at least 1000 nM.

Turning to `Cc1cc(Cl)cc2c1N(Cc1cc(F)cc3c1OCOC3)C(=O)/C2=N\O` [Compound 103], the Ki was below 1000 nM.

Consider `Cc1cc2c(c(CN3C(=O)/C(=N\O)c4ccc(C(=O)O)cc43)c1)OCOC2` [Compound 216], for which the Ki is below 1000 nM.

With `CC(C)CN1C(=O)/C(=N\O)c2cc(Br)ccc21` [Compound 159], the Ki was at least 1000 nM.

Turning to `O=C1/C(=N\O)c2cc(F)ccc2N1Cc1cccc([N+](=O)[O-])c1` [Compound 79], the inhibitory constant (Ki) is at least 1000 nM.

`O=C1/C(=N\O)c2c(CCc3ccccc3)cccc2N1Cc1cc(F)cc2c1OCOC2` [Compound 306]: the Ki is at least 1000 nM.

Turning to `O=C(Nc1ccc2c(c1)N(Cc1cc(F)cc3c1OCOC3)C(=O)/C2=N\O)c1ccc(F)cc1` [Compound 248], the Ki was below 1000 nM.

Regarding `O=C1/C(=N\O)c2cc(F)ccc2N1Cc1ccc([N+](=O)[O-])cc1` [Compound 55], the Ki is at least 1000 nM.

Take `O=C1/C(=N\O)c2cc(-c3ccc(CO)cc3)ccc2N1Cc1cc(F)cc2c1OCOC2` [Compound 283]: the Ki was at least 1000 nM.

`O=C1/C(=N\O)c2ccc(-c3cc4ccccc4o3)cc2N1Cc1cc(F)cc2c1OCOC2` [Compound 318]: the Ki was below 1000 nM.

Take `O=C1/C(=N\O)c2cc(Cl)ccc2N1Cc1ccc(Cl)c(Cl)c1` [Compound 13]: the Ki is below 1000 nM.

On to `CCN(Cc1ccccc1)C(=O)c1ccc2c(c1)N(Cc1cc(F)cc3c1OCOC3)C(=O)/C2=N\O` [Compound 242], for which the Ki was at least 1000 nM.

In the case of `Cc1cc(C)c2c(c1)/C(=N/O)C(=O)N2Cc1csc(-c2ccc(Cl)cc2)n1` [Compound 96], the Ki is at least 1000 nM.

With `CCCC(=O)Nc1ccc2c(c1)N(Cc1cc(F)cc3c1OCOC3)C(=O)/C2=N\O` [Compound 224], the Ki was below 1000 nM.

As for `COc1ccc(-c2nc(CN3C(=O)/C(=N\O)c4cc(F)ccc43)no2)cc1` [Compound 109], the Ki is at least 1000 nM.

Turning to `Cc1cc(C)c2c(c1)/C(=N/O)C(=O)N2Cc1cccc([N+](=O)[O-])c1` [Compound 88], the Ki is at least 1000 nM.

Turning to `COC(=O)c1cccc(CN2C(=O)/C(=N/O)c3ccc(-c4cccc(OC)c4)cc32)c1` [Compound 176], the Ki was at least 1000 nM.

For the molecule `O=C1/C(=N\O)c2cc(-c3cccnc3)ccc2N1Cc1cc(F)cc2c1OCOC2` [Compound 281], the Ki was at least 1000 nM.

For `COc1ccc(-c2nc(CN3C(=O)/C(=N\O)c4cc(C)cc(C)c43)no2)cc1` [Compound 91], the Ki is at least 1000 nM.

In the case of `COc1cc(CN2C(=O)/C(=N\O)c3ccc([N+](=O)[O-])cc32)cc(OC)c1` [Compound 198], the Ki was at least 1000 nM.

Take `COc1ccc(CC(=O)Nc2ccc3c(c2)N(Cc2cc(F)cc4c2OCOC4)C(=O)/C3=N/O)cc1OC` [Compound 324]: the Ki was at least 1000 nM.

Take `COc1ccc2c(CN3C(=O)/C(=N/O)c4ccc(CBr)cc43)cc(=O)oc2c1` [Compound 188]: the Ki was at least 1000 nM.

The values above are taken from patent publication US7612065B2, “Inhibitors of c-JUN N-terminal kinases (JNK)” (priority 2007, dated 2009).
